Test results reported in US20240425517A1, “NOVEL COMPOUND FOR DEGRADATION OF TARGET PROTEIN OR POLYPEPTIDE BY POLYUBIQUITINATION” (PRAZER THERAPEUTICS INC., priority 2021, published 2024).

The compounds below were run against T1, p38 proteins (Mus musculus, UniProt P47811) (assay: Degradation of p38 in Raw 264.7 macrophages (Western blot densitometry)). Settings: 10 μM, 24 hours.
T1 construct: endogenous in cells; host or cells: RAW 264.7
Format: cell-based
Description: To confirm that the compounds (p38 degraders) of Preparation Examples I″′ to III″′ reduce the amount of phospho-p38 (p-p38) proteins, experiments were performed using Raw 264.7 macrophages. Since p38 MAPK alpha is activated through the process of phosphorylation of threonine 180 (Thr180) and tyrosine 182 (Tyr182) residues by MKK3, MKK6, and the like, which are upstream regulators, phosphorylation of these residues was generally detected using an antibody (3D7 rabbit monoclonal antibody from Cell Signaling, Inc.) that specifically recognizes phospho-p38 (p-p38) MAPK in which p38 MAPK alpha was activated.
Specifically, the RAW 264.7 cells were cultured in DMEM medium containing 10% fetal bovine serum (FBS), 1% penicillin, and streptomycin (100 U/mL), transferred to a 6-well plate, and after 24 hours, the p38 degraders were diluted in the DMEM culture medium and the cells were treated with 10 μM concentration thereof. After treatment, the cells were incubated in a CO2 incubator for 24 hours. Through protein immunoblotting (Western Blot), the degrading capacity of each compound against p38 and p-p38 proteins in cells was confirmed. After cell culture was completed according to the experimental conditions, the cells were collected and centrifuged at 1,800 rpm for 3 minutes. The cells in the precipitate were lysed with RIPA (25 mM Tris-HCl pH 7.6, 150 mM NaCl, 1% NP-40, 1% sodium deoxycholate, 0.1% SDS, 1× Protease Inhibitor Cocktail), 5× sample buffer was added, and then heated at 100° C. for 15 minutes. The prepared sample was electrophoresed with sodium dodecyl sulfate poly acrylamide gel electrophoresis (SDS-PAGE), and then the proteins in the gel were transferred to a PVDF membrane using Trans-Blot Turbo. The membrane was treated with a 5% bovine serum albumin (BSA) solution and blocked at room temperature for 2 hours, and then p-p38, p38, and R-actin antibodies were diluted in the 5% BSA solution to react with the membrane at 4° C. overnight. After washed with PBST (phosphate-based saline containing 0.5% Tween20) 5 times, horse radish peroxidase (HRP)-conjugated secondary antibodies were diluted in PBST to react at room temperature for 2 hours, and then washed again with a PBST solution 5 times. After enzyme-substrate reaction was carried out using a HRP substrate, a signal was measured with chemi-doc equipment, and the densitometry of bands corresponding to the p-p38 and p38 proteins detected in the Preparation Example Compounds was quantitatively analyzed. The case when the degrading capacity of each p38 degrader was reduced by less than 40% is indicated as +, the case when the degrading capacity was reduced by 40% to 70% (exclusive of 70) is indicated as ++, the case when the degrading capacity was reduced by 70% or more is indicated as +++ in Tables 24 to 26 below. As shown in the following Tables, it was confirmed that the compounds of Preparation Examples I″′ to III″′ according to the present invention have excellent degrading capacity.

T1 sequence (P47811 whole entry): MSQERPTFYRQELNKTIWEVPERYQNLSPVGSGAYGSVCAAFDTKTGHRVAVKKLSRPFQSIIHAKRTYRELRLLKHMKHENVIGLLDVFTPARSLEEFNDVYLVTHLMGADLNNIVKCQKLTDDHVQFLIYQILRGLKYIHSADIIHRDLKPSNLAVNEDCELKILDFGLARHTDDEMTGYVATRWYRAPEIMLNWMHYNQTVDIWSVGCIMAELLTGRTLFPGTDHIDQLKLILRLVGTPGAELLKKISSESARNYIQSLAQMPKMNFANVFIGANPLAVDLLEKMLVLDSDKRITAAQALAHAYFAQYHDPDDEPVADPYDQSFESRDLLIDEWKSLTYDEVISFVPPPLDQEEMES

| Structure (SMILES) | p38 degrading capacity (%) |
| --- | --- |
| Cc1ccc(C(=O)NC2CC2)cc1-c1ccc(C(=O)c2ccc(OCCOC(=O)Nc3ccc(C#CCN)cc3)cc2)cc1.Cl [1-1″′, 2-(4-(5′-(cyclopropylcarbamoyl)-2′-methyl-[1,1′-biphenyl]-4-carbonyl)phenoxy)ethyl (4-(3-aminoprop-1-yn-1-yl)phenyl)carbamate hydrochloride] | +++ (the degrading capacity was reduced by 70% or more) |
| Cc1ccc(C(=O)NC2CC2)cc1-c1ccc(C(=O)c2ccc(OCCOC(=O)Nc3ccc(C#CC(N)CO)cc3)cc2)cc1.Cl (stereo not shown) [3-49″′, 2-(4-(5′-(cyclopropylcarbamoyl)-2′-methyl-[1,1′-biphenyl]-4-carbonyl)phenoxy)ethyl (4-(3-amino-4-hydroxybut-1-yn-1-yl)phenyl)carbamate hydrochloride] | +++ (the degrading capacity was reduced by 70% or more) |
| Cc1ccc(C(=O)NC2CC2)cc1-c1ccc(C(=O)c2ccc(OCCOC(=O)NCCCNC(=O)c3ccc(C#CCN)o3)cc2)cc1 [4-166″′, 2-(4-(5′-(cyclopropylcarbamoyl)-2′-methyl-[1,1′-biphenyl]-4-carbonyl)phenoxy)ethyl (3-(5-(3-aminoprop-1-yn-1-yl)furan-2-carboxamido)propyl)carbamate trifluoroacetic acid] | +++ (the degrading capacity was reduced by 70% or more) |
| COC(=O)c1ccc(NC(=O)CCCC(=O)OCCOc2ccc(C(=O)c3ccc(-c4cc(C(=O)NC5CC5)ccc4C)cc3)cc2)cc1C#CCN.Cl [5-106″′, methyl 2-(3-aminoprop-1-yn-1-yl)-4-(5-(2-(4-(5′-(cyclopropylcarbamoyl)-2′-methyl-[1,1′-biphenyl]-4-carbonyl)phenoxy)ethoxy)-5-oxopentanamido)benzoate hydrochloride] | +++ (the degrading capacity was reduced by 70% or more) |
| COC(=O)c1ccc(C#CCNC(=O)OCCOc2ccc(C(=O)c3ccc(-c4cc(C(=O)NC5CC5)ccc4C)cc3)cc2)cc1C#CCN.Cl [5-116″′, methyl 2-(3-aminoprop-1-yn-1-yl)-4-(3-(((2-(4-(5′-(cyclopropylcarbamoyl)-2′-methyl-[1,1′-biphenyl]-4-carbonyl)phenoxy)ethoxy)carbonyl)amino)prop-1-yn-1-yl)benzoate hydrochloride] | +++ (the degrading capacity was reduced by 70% or more) |
| COC(=O)c1ccc(C(=O)N2CCN(C(=O)OCCOc3ccc(C(=O)c4ccc(-c5cc(C(=O)NC6CC6)ccc5C)cc4)cc3)CC2)cc1C#CCN [5-140″′, 2-(4-(5′-(cyclopropylcarbamoyl)-2′-methyl-[1,1′-biphenyl]-4-carbonyl)phenoxy)ethyl 4-(3-(3-aminoprop-1-yn-1-yl)-4-(methoxycarbonyl)benzoyl)piperazine-1-carboxylate trifluoroacetic acid] | +++ (the degrading capacity was reduced by 70% or more) |

These compounds were tested against T2, ubiquitin (Homo sapiens, UniProt P0CG47) (assay: Direct binding to ubiquitin: in vitro ubiquitination and intact protein analysis (UPLC-Q/TOF or MALDI-TOF)). Settings: 10 μM, ubiquitin 1 mg/mL, E1, E2, E3 (ITCH/AIP4), ATP, 37° C., 4 hours.
T2 construct: mixed with 1 mg/mL of ubiquitin
Description: To confirm that the compounds represented by Formulae V to VIII of the present invention directly bind to ubiquitin, in vitro ubiquitination assay was performed, and then the compounds of Preparation Examples I′ to IV″′ (BRD4 degraders) bound to ubiquitin, a BRD4 inhibitor, and ubiquitin were detected using intact protein analysis. The intact protein analysis is a method capable of measuring a compound bound to a protein by mass spectrometry without protease pretreatment. Experiments were performed using ITCH/AIP4 proteins (manufacturer: R&D System), which are E3 ligases, in order to bind ubiquitin and BRD4 degraders in vitro.
Specifically, 10 μM of each degrader was mixed with 1 mg/mL of ubiquitin, 10× buffer, 5 nM of E1, 100 nM of E2, 14 nM of E3, and 1 mM of ATP to react in a 37° C. incubator for 4 hours. To the reacted samples, acetonitrile and formic acid were added for UPLC-Q/TOF or MALDI-TOF analysis, resulting in the final concentrations of 50% acetonitrile and 0.1% formic acid, respectively. For UPLC-Q/TOF, a Micromass Q-TOF micro Synapt High-definition mass spectrometer equipped with ESI was used to perform the mass spectrometry. […] The experimental results were analyzed using TOF/TOF™ Series Explorer™ software version 4.0.

| Structure (SMILES) | molecular weight peak of ubiquitin bound to the compound (intact protein analysis, FIGS. 3A-3J) |
| --- | --- |
| Cc1sc2c(c1C)C(c1ccc(Cl)cc1)=N[C@@H](CC(=O)OC(C)(C)C)c1nnc(C)n1-2 [JQ1] | not detected |
